Measurements: patent US8563609B2, “Nitro fatty acids - neuroprotection and/or inhibition of cognitive decline” (Nitromega Corp., priority 2010, dated 2013)

Experiments:
[1] = 900 mgs per day oral, six months; cited from earlier work
[2] = system: Abeta-mediated changes in membrane trafficking; assay: exocytosis (formazan membrane trafficking) assay with Abeta oligomers in mature primary neuronal cultures; format: cell-based, rat; settings: for amyloid beta (Abeta) in intracellular vesicles (figure legend): exocytosis assay, mature primary neuronal cultures grown for 3 weeks in vitro
Text: Abeta oligomer preparations: Human amyloid peptide 1-42 was obtained from a variety of commercial sources, with lot-choice contingent upon quality control analysis. Abeta 1-42 oligomers made according to published methods or isolated from human brain tissue served as positive controls. Toxicity was monitored in each image-based assay via quantification of nuclear morphology visualized with the DNA binding dye DAPI. Nuclei that were fragmented were considered to be in late stage apoptosis. Peptide lots producing unusual peptide size ranges or significant toxicity at standard concentrations on neurons were rejected.
Image Processing: Images are captured and analyzed with the Cellomics VTI automated microscope platform. For statistical analysis, a Tukey-Kramer pair-wise comparison with unequal variance is used.
A primary neuron-based functional screening assay to detect small molecule Abeta oligomer blockers: Primary rat neurons grown for at least 3 weeks in vitro were chosen as the basis for this screening assay. […] More complex systems such as acute or organotypic brain slices are very useful but not amenable to high throughput screening. […] For this reason, primary neuronal cultures were chosen because of their ability to be used in high throughput screens and fidelity to what occurs in vivo.
Measuring membrane trafficking rate changes induced by oligomers via formazan morphological shifts has been used in cell lines to discover Abeta oligomer-blocking drugs.
Yellow tetrazolium salts are endocytosed by cells and reduced to insoluble purple formazan in the endosomal pathway. The level of purple formazan is a reflection of the number of actively metabolizing cells in culture, and reduction in the amount of formazan was taken as a measure of cell death or metabolic toxicity in culture as well as an indicator of membrane trafficking
The exocytosis assay was adapted for use with mature primary neuronal cultures grown for 3 weeks in vitro.

[3] = system: motor neurons; assay: motor neuron astrocyte coculture, in vitro model of ALS (SOD G93A astrocytes); format: cell-based, mice
Protocol: Recent studies have shown that nitro-arachidonic acid can have protective effects compared with native arachidonic acid in an in vitro model of ALS. This model is based on astrocyte-induced motoneuron toxicity induced by a mutation in CuZn SOD (SOD1).
Briefly, motor neuron astrocytes cocultures were made.
FIG. 2 illustrates the results of these experiments. Native arachidonic acid (AA) at 3 μM and 5 μM had no effect on the motor neuron survival compared with control.

[4] = primary neuronal cultures grown for 3 weeks in vitro, Abeta oligomers

## CC/C=C\C/C=C\C/C=C\C/C=C\C/C=C\C/C=C\CCC(=O)O [DHA, docosahexaenoic acid]
[1]
  tolerability: well-tolerated

## C[C@]12N[C@H](Cc3ccccc31)c1ccccc12 [MK-801]
[2]; [4]
  block of Abeta oligomer effects on membrane trafficking (active / not active): none were active

## CCCCC/C=C\C/C=C\C/C=C\C/C=C\CCCC(=O)O [arachidonic acid]
[3]; 3 μM
  motor neuron survival compared with control / mutant astrocyte induced motor neuron death: no effect
[3]; 5 μM
  motor neuron survival compared with control / mutant astrocyte induced motor neuron death: no effect

## C[N+](C)(C)CCCCCC[N+](C)(C)C [hexamethonium bromide]
[2]; [4]
  block of Abeta oligomer effects on membrane trafficking (active / not active): none were active

## CCCCCCCC/C=C\CCCCCCCC(=O)O [oleic acid]
[2]; Rattus norvegicus, 504 h, primary neuronal cultures grown for 3 weeks in vitro, Abeta oligomers, read-out: EC50, inhibition of oligomer effects on membrane trafficking
  EC50: 2080 nM
[2]
  amyloid beta (Abeta) in intracellular vesicles (figure legend): dose-dependent decrease

## O[C@H]1[C@H](O)[C@@H](O)[C@H](O)[C@@H](O)[C@@H]1O [scyllo-inositol]
[2]; [4]
  block of Abeta oligomer effects on membrane trafficking (active / not active): none were active

## Nitro-oleic acid
[2]
  amyloid beta (Abeta) in intracellular vesicles (figure legend): dose-dependent decrease
[2]; [4]
  block of Abeta oligomer effects on membrane trafficking (active / not active): little statistically relevant effect on membrane trafficking

## nitro-arachidonic acid
[3]; 3 μM
  motor neuron survival compared with control / mutant astrocyte induced motor neuron death: inhibited mutant astrocyte induced motor neuron death
[3]; 5 μM
  motor neuron survival compared with control / mutant astrocyte induced motor neuron death: inhibited mutant astrocyte induced motor neuron death
[3]; incubated for 24 hours with wild type motor neurons
  motorneuron death caused by co-culture with astrocytes containing a mutation in SOD1 (SOD G93A): limited motorneuron death
